# Source: PubChem BioAssay AID248 (DTP/NCI, 2004)
# Values joined by “and” are separate entries in the source; they are usually repeats but may differ in a detail not shown here. Identical values can stand only once. Toxic doses and inconclusive results are not listed.
# Tested on: L1210 leukemia ip in BDF1 mice, survival T/C
# Assay: NCI In Vivo Anticancer Drug Screen. Data for tumor model L1210 Leukemia (intraperitoneal) in B6D2F1 (BDF1) mice
# Conditions: endpoint: mean survival time, higher = longer survival
# Outline: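 Antitumor effect is assessed in tumor-bearing animals. Survival in the compound arm is compared with a vehicle-dosed control arm and expressed as their quotient.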
# [1] = dose: 100.0 mg/kg/injection, schedule: Q01DX001 (ip), vehicle: saline
# [2] = dose: 200.0 mg/kg/injection, schedule: Q01DX001 (ip), vehicle: saline
# [3] = dose: 400.0 mg/kg/injection, schedule: Q01DX001 (ip), vehicle: saline
# [4] = dose: 100.0 mg/kg/injection, schedule: Q01DX009 (ip), vehicle: Klucel (hydroxypropylcellulose) (HPC)
# [5] = dose: 100.0 mg/kg/injection, schedule: Q04DX003 (ip), vehicle: Klucel (hydroxypropylcellulose) (HPC)
# [6] = dose: 200.0 mg/kg/injection, schedule: Q01DX009 (ip), vehicle: Klucel (hydroxypropylcellulose) (HPC)
# [7] = dose: 200.0 mg/kg/injection, schedule: Q04DX003 (ip), vehicle: Klucel (hydroxypropylcellulose) (HPC)
# [8] = dose: 400.0 mg/kg/injection, schedule: Q01DX009 (ip), vehicle: Klucel (hydroxypropylcellulose) (HPC)
# [9] = dose: 400.0 mg/kg/injection, schedule: Q04DX003 (ip), vehicle: Klucel (hydroxypropylcellulose) (HPC)
# [10] = dose: 100.0 mg/kg/injection, schedule: Q04DX003 (ip), vehicle: saline with Tween-80
# [11] = dose: 200.0 mg/kg/injection, schedule: Q04DX003 (ip), vehicle: saline with Tween-80
# [12] = dose: 400.0 mg/kg/injection, schedule: Q04DX003 (ip), vehicle: saline with Tween-80
# [13] = dose: 50.0 mg/kg/injection, schedule: Q01DX001 (ip), vehicle: carboxymethylcellulose (CMC)
# [14] = dose: 100.0 mg/kg/injection, schedule: Q01DX001 (ip), vehicle: carboxymethylcellulose (CMC)
# [15] = dose: 200.0 mg/kg/injection, schedule: Q01DX001 (ip), vehicle: carboxymethylcellulose (CMC)
# [16] = dose: 400.0 mg/kg/injection, schedule: Q01DX001 (ip), vehicle: carboxymethylcellulose (CMC)
# [17] = dose: 100.0 mg/kg/injection, schedule: Q01DX009 (ip), vehicle: saline with Tween-80
# [18] = dose: 200.0 mg/kg/injection, schedule: Q01DX009 (ip), vehicle: saline with Tween-80
smiles,measurement,setting,value
O=C(Nc1ccc(CCNC2=NCCN2)cc1)c1ccc(C(=O)Nc2ccc(CCNC3=NCCN3)cc2)cc1,T/C,"dose: 1.0 mg/kg/injection, schedule: Q01DX Z (ip), vehicle: water",107 % of control
same,T/C,"dose: 1.5 mg/kg/injection, schedule: Q01DX Z (ip), vehicle: water",109 % of control
same,T/C,"dose: 3.0 mg/kg/injection, schedule: Q01DX Z (ip), vehicle: water",158 % of control
same,T/C,"dose: 3.75 mg/kg/injection, schedule: Q01DX Z (ip), vehicle: water",167 % of control
same,T/C,"dose: 7.5 mg/kg/injection, schedule: Q01DX Z (ip), vehicle: water",151 % of control
same,T/C,"dose: 10.0 mg/kg/injection, schedule: Q01DX Z (ip), vehicle: carboxymethylcellulose (CMC)",216 % of control
same,T/C,"dose: 15.0 mg/kg/injection, schedule: Q01DX Z (ip), vehicle: water",92 % of control
same,T/C,"dose: 20.0 mg/kg/injection, schedule: Q01DX Z (ip), vehicle: carboxymethylcellulose (CMC)",180 % of control
same,T/C,"dose: 40.0 mg/kg/injection, schedule: Q01DX Z (ip), vehicle: carboxymethylcellulose (CMC)",118 % of control
same,T/C,"dose: 62.0 mg/kg/injection, schedule: Q01DX Z (oral), vehicle: water",101 % of control
same,T/C,"dose: 80.0 mg/kg/injection, schedule: Q01DX Z (ip), vehicle: carboxymethylcellulose (CMC)",108 % of control
same,T/C,"dose: 125.0 mg/kg/injection, schedule: Q01DX Z (oral), vehicle: water",100 % of control
same,T/C,"dose: 250.0 mg/kg/injection, schedule: Q01DX Z (oral), vehicle: water",109 % of control
same,T/C,"dose: 500.0 mg/kg/injection, schedule: Q01DX Z (oral), vehicle: water",101 % of control
CC(=O)CC(=O)C(F)(F)F.[O]=[U]=[O],T/C,"dose: 0.37 mg/kg/injection, schedule: Q01DX009 (ip), vehicle: gum acacia",99 % of control
same,T/C,"dose: 0.75 mg/kg/injection, schedule: Q01DX009 (ip), vehicle: gum acacia",101 % of control
same,T/C,"dose: 1.5 mg/kg/injection, schedule: Q01DX009 (ip), vehicle: gum acacia",101 % of control
same,T/C,"dose: 6.25 mg/kg/injection, schedule: Q01DX005 (ip), vehicle: gum acacia",99 % of control
same,T/C,"dose: 6.25 mg/kg/injection, schedule: Q01DX009 (ip), vehicle: gum acacia",98 % of control
same,T/C,"dose: 12.5 mg/kg/injection, schedule: Q01DX005 (ip), vehicle: gum acacia",86 % of control
same,T/C,"dose: 12.5 mg/kg/injection, schedule: Q04DX002 (ip), vehicle: gum acacia",104 % of control
same,T/C,"dose: 25.0 mg/kg/injection, schedule: Q04DX002 (ip), vehicle: gum acacia",87 % of control
CC1OC1COC1COC2C(OCC3OC3C)COC12 (stereo not drawn),T/C,[1],106 % of control
same,T/C,[2],106 % of control
same,T/C,[3],101 % of control
CCOc1ccccc1NC(=S)NC(=O)c1ccc(OC)cc1,T/C,[4],104 % of control
same,T/C,[5],109 % of control
same,T/C,[6],93 % of control
same,T/C,[7],102 % of control
same,T/C,[8],93 % of control
same,T/C,[9],100 % of control
O=C(Nc1cc(Cl)ccc1Cl)c1cccc(Cl)c1,T/C,[4],93 % of control
same,T/C,[6],100 % of control
same,T/C,[8],97 % of control
O=C(O)c1ccc2c3c(ccc([N+](=O)[O-])c13)C=C2,T/C,[10],96 % of control
same,T/C,[11],94 % of control
same,T/C,[12],103 % of control
CCCCOC(=O)CCCCC(=O)OC(C)C(=O)OCCCC (stereo not drawn),T/C,[1],102 % of control
same,T/C,[2],102 % of control
same,T/C,[3],89 % of control
O=C1c2ccccc2C(=O)c2c(NC(=O)C(Cl)CCl)cccc21 (stereo not drawn),T/C,"dose: 75.0 mg/kg/injection, schedule: Q01DX001 (ip), vehicle: saline",94 % of control
same,T/C,"dose: 150.0 mg/kg/injection, schedule: Q01DX001 (ip), vehicle: saline",90 % of control and 92 % of control
same,T/C,"dose: 300.0 mg/kg/injection, schedule: Q01DX001 (ip), vehicle: saline",97 % of control
Nc1ncnc2c1ccn2C1CCCC1,T/C,"dose: 25.0 mg/kg/injection, schedule: Q01DX001 (ip), vehicle: carboxymethylcellulose (CMC)",100 % of control
same,T/C,[13],111 % of control
same,T/C,[14],105 % of control
CNC(=O)OCc1c(COC(=O)NC)c(-c2ccc(Cl)c(Cl)c2)n2c1CCC2,T/C,"dose: 12.5 mg/kg/injection, schedule: Q01DX009 (ip), vehicle: Klucel (hydroxypropylcellulose) (HPC)",106 % of control
same,T/C,"dose: 25.0 mg/kg/injection, schedule: Q01DX009 (ip), vehicle: Klucel (hydroxypropylcellulose) (HPC)",109 % of control
same,T/C,"dose: 50.0 mg/kg/injection, schedule: Q01DX009 (ip), vehicle: Klucel (hydroxypropylcellulose) (HPC)",124 % of control
CCOC(=O)Nc1cc(N)c2nnn(C(c3ccccc3)c3ccccc3)c2n1,T/C,[5],92 % of control
same,T/C,[7],91 % of control
same,T/C,[9],91 % of control
CCc1ccccc1NC(=O)N1CCCCC1C (stereo not drawn),T/C,[4],102 % of control
same,T/C,[6],94 % of control
O=[N+]([O-])C1CCCCCCCCCCC1,T/C,"dose: 100.0 mg/kg/injection, schedule: Q01DX001 (ip), vehicle: other",96 % of control
same,T/C,"dose: 200.0 mg/kg/injection, schedule: Q01DX001 (ip), vehicle: other",100 % of control
same,T/C,"dose: 400.0 mg/kg/injection, schedule: Q01DX001 (ip), vehicle: other",96 % of control
CC(=O)OC1CCC2(C)C(=CCC3C2CCC2(C)C(C(C)C(O)C4C(=O)OCC4C(c4ccccc4)(c4ccccc4)c4ccccc4)CCC32)C1 (stereo not drawn),T/C,"dose: 100.0 mg/kg/injection, schedule: Q04DX002 (sc), vehicle: gum acacia",95 % of control
same,T/C,"dose: 200.0 mg/kg/injection, schedule: Q04DX002 (sc), vehicle: gum acacia",95 % of control
same,T/C,"dose: 400.0 mg/kg/injection, schedule: Q04DX002 (sc), vehicle: gum acacia",92 % of control
CCOP(=S)(S)OCC.[Ni],T/C,"dose: 50.0 mg/kg/injection, schedule: Q01DX001 (ip), vehicle: saline",93 % of control
same,T/C,[1],102 % of control
same,T/C,[2],100 % of control
CSCCOP(=O)(N(C)C)N(C)C,T/C,"dose: 100.0 mg/kg/injection, schedule: Q04DX002 (ip), vehicle: Klucel (hydroxypropylcellulose) (HPC)",103 % of control
same,T/C,"dose: 200.0 mg/kg/injection, schedule: Q04DX002 (ip), vehicle: Klucel (hydroxypropylcellulose) (HPC)",103 % of control
same,T/C,"dose: 400.0 mg/kg/injection, schedule: Q04DX002 (ip), vehicle: Klucel (hydroxypropylcellulose) (HPC)",88 % of control
C=CS(=O)(=O)c1ccc(N)cc1,T/C,[4],103 % of control
same,T/C,[6],95 % of control
COC(=O)c1ccc(N(C)CCC(=O)CBr)cc1,T/C,[1],95 % of control
COc1ccc(OC)c(NC(=O)c2cccc(N)c2)c1,T/C,[14],111 % of control
same,T/C,[15],105 % of control
same,T/C,[16],103 % of control
Cc1ccc(S(=O)(=O)OCC2C3CCC(C3=O)C2COS(=O)(=O)c2ccc(C)cc2)cc1 (stereo not drawn),T/C,"dose: 50.0 mg/kg/injection, schedule: Q04DX003 (ip), vehicle: saline with Tween-80",98 % of control
same,T/C,[10],96 % of control and 106 % of control
same,T/C,[11],98 % of control
same,T/C,[12],86 % of control
Cc1noc2nc(Cl)cnc12,T/C,[17],109 % of control
same,T/C,[10],94 % of control
same,T/C,[18],110 % of control
same,T/C,[11],102 % of control
same,T/C,"dose: 400.0 mg/kg/injection, schedule: Q01DX009 (ip), vehicle: saline with Tween-80",104 % of control
same,T/C,[12],94 % of control
C/C(=N/N=C(N)N)c1cccnc1,T/C,"dose: 15.0 mg/kg/injection, schedule: Q01DX Z (ip), vehicle: saline",106 % of control
same,T/C,"dose: 30.0 mg/kg/injection, schedule: Q01DX Z (ip), vehicle: saline",106 % of control
same,T/C,"dose: 60.0 mg/kg/injection, schedule: Q01DX Z (ip), vehicle: saline",108 % of control
same,T/C,"dose: 120.0 mg/kg/injection, schedule: Q01DX Z (ip), vehicle: saline",93 % of control
CCOC(=O)Nc1cc(NC(c2ccccc2)c2ccccc2)c([N+](=O)[O-])c(N)n1,T/C,[14],91 % of control
same,T/C,[15],91 % of control
same,T/C,[16],89 % of control
OCCN1CCC2(CC1)SSC1(CCN(CCO)CC1)S2,T/C,"dose: 50.0 mg/kg/injection, schedule: Q01DX009 (ip), vehicle: saline with Tween-80",104 % of control
same,T/C,[17],98 % of control
same,T/C,[10],100 % of control
same,T/C,[18],93 % of control
same,T/C,[11],104 % of control
CCCCCCCCCCCC(=O)Nc1ccc(SSc2ccc(NC(=O)CCCCCCCCCCC)cc2)cc1,T/C,[13],97 % of control
same,T/C,[14],103 % of control
same,T/C,[15],90 % of control
same,T/C,[16],101 % of control
